Assay results published in patent US12678440B2, “Compositions and methods for treating misfolded protein ocular disorders” (CASE WESTERN RESERVE UNIVERSITY, priority 2020, dated 2026).

System: Rho^P23H/+ mice
Experiment: Electroretinogram (ERG) after intravitreal injection
Assay type: in vivo, mouse
Protocol: The C57BL/6J (Rho^+/+) mice and Rho^P23H/P23H mice were purchased from Jackson Laboratory (Stock No 017628) generated by Dr. Krzysztof Palczewski's lab. The Rho^P23H/P23H mice were crossed with wild-type C57BL/6J mice to produce P23H heterozygotes mice. Genotyping for all strains was conducted as guided using forward and reverse primers: 1) GGTAGCACTGTTGGGCATCT (SEQ ID NO: 5); and 2) GACCCCACAGAGACAAGCTC (SEQ ID NO: 6), respectively. The PCR products at 573 and 399 bp indicated the P23H knock-in mutant and WT allele of the RHO gene, respectively. Mice were bred and housed under standard 12-h light/12-h dark conditions in the University of Pittsburgh animal facility. All animal experiments were approved by the University of Pittsburgh Institutional Animal Care and Use Committee (IACUC) following the guide for the Animal Welfare Act and Regulations.
To determine the effect of compounds on retina in vivo, we administered compounds directly into the vitreous space. Briefly, mice were treated with 1% tropicamide eye drops (Akorn, Lake Forest, IL USA) to dilate the pupils and then they were anesthetized with an intraperitoneal injection of ketamine (Henry Schein, Dublin, OH USA) at 80 mg/kg body weight (bw) and xylazine (Bimeda, Le Sueur, MN USA) at 7 mg/kg bw. One drop of 0.5% tetracaine hydrochloride (TCI, Tokyo, Japan) was applied to mouse eyes as topical anesthetics before injection. Eyes were kept lubricated during the injections by a 0.3% hypromellose eye gel (Alcon, Fort Worth, TX USA). A heating pad was used for maintaining body temperature. Mice were positioned to expose the sclera of the eyes. A 30-gauge needle (Medline, Northfield, IL USA) was used to puncture a hole through sclera behind limbus at a 45° angle. A 33-gauge blunt-end needle (Hamilton, Reno, NV USA) was used to be inserted into the hole and a total of 0.5 μL of sterile PBS or MTX in PBS was slowly injected into the posterior chamber and the needle was kept in place for about 30 seconds before a slow removal of the needle. A small amount of Triantibiotic ointment (Medline, Northfield, IL USA) was applied on the injection site to prevent infection. A single IVI with 25 or 100 pmol of MTX was administered to one eye of each Rho^P23H/+ mice at postnatal day (PND) 15, and PBS was injected to the other eye as vehicle control. We also performed four weekly IVIs of MTX or PBS to the second group of Rho^P23H/+ mouse eyes at PND 15, 22, 29 and 36.
ERG was performed using the Celeris system (Diagnosys, Lowell, MA, USA), as described previously. Before each test, mice were kept in the dark overnight. Pupils were dilated with 1% tropicamide (Akorn, Lake Forest, IL, USA). Mice were anesthetized with an intraperitoneal injection of ketamine at 80 mg/kg bw and xylazine at 7 mg/kg bw. Eyes were lubricated by a 0.3% hypromellose eye gel (Alcon, Fort Worth, TX, USA). A heating pad was used to maintain body temperature at 37° C. Scotopic ERG responses of dark-adapted eyes to ten flashes from 0.01 cd·s/m^2 to 30 cd·s/m^2 were recorded and averaged from three sweeps per flash intensity with inter-sweep intervals of 10 to 30 s. After exposed to 10 cd/m^2 illumination for 5 min, the photopic ERG responses were recorded from the light-adapted eyes in respond to flashes from 0.01 cd·s/m^2 to 30 cd·s/m^2 in addition to a 10 cd/m^2 background light. P-values were calculated by a two-way ANOVA to determine the statistical significance between the response amplitudes in the MTX-treated and vehicle (PBS) group. Factor 1, treatment condition; and factor 2, flash intensity.

[1] = single IVI 25 pmol at PND 15, ERG at PND 32, vs PBS or non-treated
[2] = single IVI 100 pmol at PND 15, ERG at PND 32

## CN(Cc1cnc2nc(N)nc(N)c2n1)c1ccc(C(=O)N[C@@H](CCC(=O)O)C(=O)O)cc1 [CL-009, N-[4-[[(2,4-diamino-6-pteridinyl)methyl]methylamino]benzoyl]-L-glutamic acid]
Four weekly IVIs from PND 15, ERG at PND 44, vs PBS
  multi-flash scotopic and photopic b-waves: significantly increased
Four weekly IVIs of 100 pmol, vs PBS, at higher flash intensities
  photopic b-waves: higher
[1]
  multi-flash scotopic ERG a- and b-waves: significantly higher
  photopic ERG responses: higher
[2]
  multi-flash scotopic ERG a- and b-waves: no effect
  photopic ERG responses: did not show any effects
Single IVI 25 or 100 pmol
  ratio of scotopic and photopic b- to a-wave amplitudes: not affected
